Legend:
HT-29 cells = experiment: Smac mimetic plus pan-caspase inhibitor induced necrosis in HT-29 cells; assay type: cell-based, human; conditions: for cell death of HT-29 cells: Smac mimetic plus z-VAD or Q-VD-OPH co-treatment
Method: To verify that cell death seen in HT-29 cells was indeed necrosis, cells treated with either vehicle DMSO, or Smac mimetic plus z-VAD, were analyzed by electron microscopy (EM). […] No obvious apoptotic morphological changes were observed.
Since Smac mimetic induces apoptosis in certain tumor lines as a result of autocrine TNF-α (Petersen et al., 2007; Vince et al., 2007; Varfolomeev et al., 2007), we checked whether autocrine TNF-α is required for the observed necrosis in HT-29 cells. […] Moreover, exogenously added TNF-α augmented Smac mimetic plus z-VAD induced cell death and it did so in a dose dependent manner.

T98G cells = experiment: Necrosis induction in T98G cells ectopically expressing RIP3; assay type: cell-based, human; conditions: T98G cells expressing wild type RIP3, necrosis induction
Excerpt: Since cells resistant to TNF-α induced necrotic death are also defective in RIP3 expression, we then tested whether ectopic expression of RIP3 converts these cells to sensitive ones. When wild type RIP3 was expressed in T98G cells, we saw marked cell death in these cells upon necrosis induction compared to vector transfection controls. […] Moreover, T98G cell death resulted from RIP3 expression was blocked by the necrosis inhibitor, Necrostatin-1. Similar effects were observed when RIP3 was expressed in HeLa cells, MCF-7 cells, and H2009 cells.

RIP3/RIPK1 = RIP3/RIPK1 (Homo sapiens, UniProt Q13546); experiment: RIP3 up-shift and RIPK1 co-immunoprecipitation in HT-29 cells under necrosis induction; assay type: cell-based; conditions: co-treatment during necrosis induction (TNF-α, Smac mimetic, z-VAD)
Method: To test whether endogenous RIP3 indeed interacts with RIPK1 upon necrosis induction, we treated HT-29 cells with TNF-α, Smac mimetic and z-VAD, followed by immuno-precipitation using an anti-RIPK1 antibody at different time points. […] Correlating with the shift, RIP3 was found in the RIPK1 immuno-complex starting at 4 hours of necrosis induction and peaked at 8 hours. The up-shift of RIP3 and its interaction with RIPK1 only occurred under necrosis-inducing conditions. The observed up-shift of RIP3 is most likely due to phosphorylation that depends on its own kinase activity. […] Moreover, the RIP3 band can be shifted down to the original position on SDS-PAGE gel with phosphatase treatment.
To further confirm the relevance of RIP3 up-shift and its induced interaction with RIPK1 to necrosis, HT-29 cells were co-treated with Necrostatin-1 during necrosis induction.

[1] = target: RIPK1/FADD/caspase-8 complex (Homo sapiens, UniProt Q13546); experiment: Caspase-8 immunoprecipitation of RIPK1/FADD/caspase-8/RIP3 complex in HT-29 cells; assay type: cell-based; conditions: co-treatment, anti-caspase-8 immunoprecipitation
Method: Since RIPK1 forms a complex with caspase-8/FADD upon treatment with TNF-α plus Smac mimetic and the complex is stabilized with z-VAD (Petersen et al., 2007; Wang et al., 2008), we wondered whether it is the same complex that recruits RIP3. To check that directly, we immuno-precipitated caspase-8 and analyzed the composition of the immuno-complex by Western blotting. […] RIP3 continued to be recruited to the complex for up to 6 hours of treatment. Much less proteins were immuno-precipitated at 8 hours with this anti-caspase-8 antibody. This observation might reflect that a large percentage of cells were dying. […] This is consistent with the notion that Necrostatin-1 inhibits RIPK1 kinase activity, which is required for the formation of RIPK1/FADD/caspase-8 complex (Degterev et al., 2008; Wang et al., 2008).

cIAP2 = target: T1, cIAP2 (Homo sapiens, UniProt Q13489); experiment: cIAP2 degradation upon Smac mimetic treatment in HT-29 cells; assay type: cell-based
T1 construct: endogenous in cells; host or cells: HT-29

L929 cells = experiment: Necrotic cell death in L929 cells; assay type: cell-based, mouse
Excerpt: TNF-α induced necrosis has been most extensively studied in mouse fibrosarcoma L929 cells due to its unique ability to undergo necrosis in response to TNF-α, or z-VAD alone (Grooten et al., 1993; Vercammen et al., 1998; Degterev et al., 2005; Kim et al., 2007). To test whether RIP3 is required for necrosis this L929 cells, we knocked down RIP3 with three individual mouse siRNA oligoes. Cell death induced by z-VAD, or TNF-α alone or combination of the two was attenuated when RIP3 was knocked down in L929 cells. The efficacy of necrosis blockage of these oligoes correlated perfectly with the efficiency of RIP3 knockdown.

certain tumor cell lines = conditions: cited from earlier work

Chain of RIP3/RIPK1 (Q13546 whole entry): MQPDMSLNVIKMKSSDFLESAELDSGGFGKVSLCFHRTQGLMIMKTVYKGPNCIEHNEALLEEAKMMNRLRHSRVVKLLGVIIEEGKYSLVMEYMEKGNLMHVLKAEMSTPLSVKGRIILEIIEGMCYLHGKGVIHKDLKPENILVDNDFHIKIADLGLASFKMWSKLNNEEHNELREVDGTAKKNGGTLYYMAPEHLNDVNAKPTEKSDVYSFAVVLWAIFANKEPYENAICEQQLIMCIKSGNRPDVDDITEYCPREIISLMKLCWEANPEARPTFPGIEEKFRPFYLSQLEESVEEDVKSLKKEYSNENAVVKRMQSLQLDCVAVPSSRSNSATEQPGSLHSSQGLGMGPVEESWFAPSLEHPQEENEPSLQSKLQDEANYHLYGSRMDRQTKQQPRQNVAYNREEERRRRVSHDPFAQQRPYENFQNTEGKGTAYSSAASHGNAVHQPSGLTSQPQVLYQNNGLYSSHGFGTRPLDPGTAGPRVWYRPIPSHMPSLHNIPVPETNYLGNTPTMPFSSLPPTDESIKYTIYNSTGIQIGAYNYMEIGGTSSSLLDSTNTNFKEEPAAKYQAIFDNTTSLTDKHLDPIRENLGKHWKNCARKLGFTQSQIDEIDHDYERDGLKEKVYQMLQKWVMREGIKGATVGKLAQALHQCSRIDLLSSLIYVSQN
T1 sequence (Q13489 whole entry): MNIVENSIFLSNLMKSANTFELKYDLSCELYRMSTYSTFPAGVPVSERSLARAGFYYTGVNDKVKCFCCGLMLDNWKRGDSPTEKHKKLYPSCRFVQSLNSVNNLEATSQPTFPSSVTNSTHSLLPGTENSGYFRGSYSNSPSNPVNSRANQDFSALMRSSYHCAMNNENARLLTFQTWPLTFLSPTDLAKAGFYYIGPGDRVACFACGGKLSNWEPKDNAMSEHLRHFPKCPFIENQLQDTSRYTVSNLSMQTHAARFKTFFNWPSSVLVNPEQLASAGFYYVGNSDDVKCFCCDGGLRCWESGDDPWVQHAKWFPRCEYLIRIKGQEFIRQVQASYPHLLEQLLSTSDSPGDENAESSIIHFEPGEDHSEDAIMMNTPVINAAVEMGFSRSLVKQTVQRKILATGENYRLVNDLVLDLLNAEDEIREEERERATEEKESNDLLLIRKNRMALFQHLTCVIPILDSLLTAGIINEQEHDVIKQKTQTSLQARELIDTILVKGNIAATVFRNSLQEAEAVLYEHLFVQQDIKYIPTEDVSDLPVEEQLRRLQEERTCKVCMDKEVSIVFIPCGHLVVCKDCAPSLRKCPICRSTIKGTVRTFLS
Chain of RIPK1/FADD/caspase-8 complex (Q13546 whole entry, one chain of several): as the sequence (Q13546 whole entry) above

## CN1C(=O)C(Cc2c[nH]c3ccccc23)NC1=S (stereo not drawn) [Necrostatin-1]
HT-29 cells; HT-29 cells, agent added to culture
  effect on Smac mimetic plus z-VAD induced cell death: cell death was prevented
T98G cells
  effect on T98G cell death resulting from RIP3 expression: blocked
RIP3/RIPK1
  RIP3 interaction with RIPK1: completely prevented
  RIP3 up-shift: completely prevented
[1]
  formation of RIPK1/FADD/caspase-8 (RIP3) complexes: none of these complexes were able to form efficiently

## CN[C@@H](C)C(=O)N[C@H](C(=O)N1CCC[C@H]1Cn1nnnc1Sc1ccccc1)C(C)OCC#CC#CCO[C@H](C)[C@H](NC(=O)[C@H](C)NC)C(=O)N1CCCC1Cn1nnnc1Sc1ccccc1 (stereo partly drawn) [Smac mimetic]
cIAP2
  cIAP2 degradation: accelerated degradation
HT-29 cells
  cell death of HT-29 cells: exacerbated cell death
L929 cells
  cell death in L929 cells: accelerated cell death

## Q-VD-OPH
HT-29 cells
  cell death of HT-29 cells: exacerbated cell death

## TNF-α
HT-29 cells; HT-29 cells
  effect of exogenously added TNF-α on Smac mimetic plus z-VAD induced cell death: augmented

## z-VAD
HT-29 cells
  cell death of HT-29 cells: exacerbated cell death
Certain tumor cell lines
  effect on Smac mimetic induced apoptotic death: completely blocked
